We go through eight molecules from publication PMC11459619, “Evaluating the amoeba thioredoxin reductase selenoprotein as potential drug target for treatment of Acanthamoeba infections” (International Journal for Parasitology: Drugs and Drug …, 2024).

Where two headings read alike, the source gives them in different places.

Data set [1] concerns human corneal epithelial cells (HCECs). The data set can be described thus: Cytotoxicity test on human corneal epithelial cells (CellTiter 96 AQueous One). The format is cell-based. To be noted: HCEC; for TD50 24 h: 24 h of treatment; for TD50 48 h: 48 h of treatment; for TD50 72 h: 72 h of treatment. On the procedure: Cytotoxicity of the compounds towards human corneal epithelial cells (HCECs) (Innoprot, ref. P10871) was determined ([Loufouma Mbouaka et al., 2023]) in 96-well microplates. The HCECs (1 × 10^4 cells/well) were grown in 100 μL of corneal epithelial cell medium (CEpiCM) (Innoprot, ref. P60131) supplemented with 1% of corneal epithelial cell growth supplement (CEpiCGS), 2% of fetal bovine serum (FBS) and 1% antibiotic mix: 10,000 U penicillin, 10 mg streptomycin and 25 μg amphotericin B per milliliter. After overnight incubation, cytotoxicity was evaluated adding 20 μL of CellTiter 96® AQueous One Solution Reagent (Promega, Madison, WI, USA). After 1 h of incubation at 37 °C, the absorbance at 490 nm was read using a spectrophotometer (Tecan, Spark 10M, Switzerland).
The TD50 values were calculated using the same method as the IC50 values with GraphPad Prism. Moreover, the therapeutic index was determined as the ratio of TD50 to IC50 ([Muller and Milton, 2012]).

In data set [2] the test system is Acanthamoeba strain Neff trophozoites. The data set can be described thus: In vitro amoebicide assay, trypan blue direct counting. The format is cell-based, Acanthamoeba castellanii. The protocol:
Acanthamoeba castellanii strain Neff (ATCC® 30010™) genotype T4 was used for all experiments. The amoebae were grown in peptone yeast extract-glucose medium (PYG) in 75 cm^2 tissue culture flasks at 25 °C with weekly medium changes as described previously ([Köhsler et al., 2022]).
The amoebicidal activity was assessed by direct counting, using trypan blue ([Martín-Pérez et al., 2021]) and assayed in sterile 96-well microplates. Diverse drug concentrations (0–20 μM) were prepared via serial dilutions in DMSO, keeping total DMSO at 5% in the control well and in the drug solution wells ranging 5–3%. Amoebae from log-phase cultures (5 × 10^4 trophozoites/well) were inoculated into the microplates and the trophozoites were resuspended in PYG medium. Drug assays contained 100 μL of trophozoites solution, 90 μL of PYG media and 10 μL of the drug solution per well. The growth control (positive control) included 100 μL of trophozoites solution, 90 μL of PYG medium and 10 μL of DMSO. Each drug concentration and control were investigated in triplicates and each experiment was repeated in two independent setups. The plates were incubated at 25 °C during 4, 24, 48 and 72 h. Samples were placed in a Bürker-Türk counting chamber. The IC50 was calculated using GraphPad Prism, as explained previously.

The subject of data set [3] is AcTrxR-L. The experiment in a line: Inhibition of AcTrxR-L, direct DTNB reduction assay. As to conditions: for IC50: DTNB reduction; for Reversibility of AcTrxR-L inhibition after desalting: removal of compound from solution by desalting. The format is biochemical, Acanthamoeba castellanii. On the procedure: (§1) The reaction consisted of incubating 50 nM AcTrxR-L with 0.5–10 μM of auranofin, TRi-1 or TRi- 2, or 1% v/v DMSO, 250 μM NADPH and 0.01 mg/ml BSA in TE buffer for 30 min ([Fata et al., 2022]). Then, the reaction was diluted 5-fold and 200 μl was desalted using Zeba™ Spin Desalting Columns and Plates, 40K MWCO (Thermo Scientific, 87767), whereupon 100 μl of the reactions, either desalted or not desalted, were transferred to each well of a 96 well plate. Subsequently, 250 μM NADPH and 1 mM DTNB were added to each well. The TNB^− formation at A412 nm was followed by a spectrophotometer and experiments were carried out in duplicates. The IC50 values were determined based on the nonlinear regression (curve fit), dose-response-inhibitor equation, log (inhibitor) vs. normalized response (variable slope) using GraphPad Prism.

Data set [4] relates to AcTrxR-L. The experiment in a line: Direct DTNB reduction assay. The format is biochemical, Acanthamoeba castellanii. The protocol:
Unless stated otherwise, all enzyme assays for AcTrxR-L were based upon well-established selenoprotein TrxR assays, as outlined earlier ([Arnér, 2018]). Kinetic parameters of AcTrxR-L were determined with different biochemical assays in triplicates in cuvettes as previously described ([Fata et al., 2022]). First, the specific activity of AcTrxR-L was calculated from its NADPH-dependent DTNB reduction. The reaction mixture contained 10 nM AcTrxR-L, 250 μM NADPH, and 2.5 mM DTNB in TE buffer (50 mM Tris and 2 mM EDTA, pH 7.5), and the reduction of DTNB was monitored by measuring the formation of the TNB^− anion at A412 nm on a spectrophotometer. Each DTNB is reduced into 2 molecules of TNB^− with extinction coefficient of 13,600 M^−1cm^−1 at 412 nm and the specific activity of the enzyme was calculated as Unit per mg (U/mg), with 1 U (μmol/min) defined as conversion of 1 μmol of DTNB substrate per minute.
Apparent Michaelis-Menten parameters were in all cases calculated based on the nonlinear fit of the velocity vs substrate concentration curves to the Michaelis-Menten equation by using GraphPad Prism.

Data set [5] addresses T1, AcTrxR-L (Acanthamoeba castellanii, UniProt L8HG59).
T1 construct: gene ACA1_153040; recombinant selenoprotein from E. coli C321.ΔA (pABC2a, UAG as Sec codon, SECIS element); N-terminal His-SUMO removed with ULP1; homodimer with one FAD per subunit
T1 sequence (L8HG59 1-526): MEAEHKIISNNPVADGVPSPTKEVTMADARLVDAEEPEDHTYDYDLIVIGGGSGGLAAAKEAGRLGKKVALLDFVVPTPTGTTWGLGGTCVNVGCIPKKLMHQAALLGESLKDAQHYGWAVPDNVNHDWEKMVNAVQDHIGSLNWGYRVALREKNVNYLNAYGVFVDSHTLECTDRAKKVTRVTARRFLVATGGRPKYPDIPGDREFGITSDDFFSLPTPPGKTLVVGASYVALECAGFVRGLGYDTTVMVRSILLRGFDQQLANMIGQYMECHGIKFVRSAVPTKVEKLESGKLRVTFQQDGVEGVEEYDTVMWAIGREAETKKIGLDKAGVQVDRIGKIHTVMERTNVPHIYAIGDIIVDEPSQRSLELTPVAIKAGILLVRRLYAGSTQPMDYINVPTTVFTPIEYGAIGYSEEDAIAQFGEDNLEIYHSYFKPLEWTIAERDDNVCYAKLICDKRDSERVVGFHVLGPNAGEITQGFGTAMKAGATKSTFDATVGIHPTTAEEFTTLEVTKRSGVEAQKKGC
The experiment in a line: DTNB reduction at 412 nm (250 μM NADPH, 1 mM DTNB, TE buffer) after preincubation of 50 nM AcTrxR-L with inhibitor, 250 μM NADPH and 0.01 mg/ml BSA for 30 min (10 min in results), diluted 5-fold, without desalting. The format is biochemical. To be noted: n = 2; read-out: IC50 (μM), Not desalted. The protocol: as §1, with “Then,” for “The reaction consisted of incubating 50 nM AcTrxR-L with 0.5–10 μM of auranofin, TRi-1 or TRi- 2, or 1% v/v DMSO, 250 μM NADPH and 0.01 mg/ml BSA in TE buffer for 30 min ([Fata et al., 2022]). Then,”

Data set [6] concerns the target T1, AcTrxR-L. The experiment in a line: DTNB reduction at 412 nm (250 μM NADPH, 1 mM DTNB, TE buffer) after preincubation of 50 nM AcTrxR-L with inhibitor, 250 μM NADPH and 0.01 mg/ml BSA for 30 min (10 min in results), diluted 5-fold and desalted to remove free inhibitor. The format is biochemical. As to conditions: n = 2. On the procedure: as §1, with “Then,” for “The reaction consisted of incubating 50 nM AcTrxR-L with 0.5–10 μM of auranofin, TRi-1 or TRi- 2, or 1% v/v DMSO, 250 μM NADPH and 0.01 mg/ml BSA in TE buffer for 30 min ([Fata et al., 2022]). Then,”

Another data set deals with AcTrxR-S. Details: method as in Leitsch et al., 2021. As to conditions: ref Leitsch et al., 2021; read-out: IC50 enzymatic activity of AcTrxR-S; cited from earlier work.
Data set [7] has as its system different strains of Acanthamoeba. As to conditions: ref Feng et al. (2020); read-out: IC50 against Acanthamoeba trophozoites; cited from earlier work.
The next data set concerns Schistosoma mansoni. Details: method as in Kuntz et al., 2007. To be noted: treatment of infected mice; ref Kuntz et al., 2007; cited from earlier work.
Another data set deals with HCEC. Details: method as in Martín-Pérez et al., 2019. To be noted: ref Martín-Pérez et al., 2019; read-out: IC50 against HCEC; cited from earlier work.
Substrate in data set [8]: O=C(O)c1cc(SSc2ccc([N+](=O)[O-])c(C(=O)O)c2)ccc1[N+](=O)[O-]
The data set can be described thus: purified protein, by the assay type. As to conditions: pH 7.5.

The mark [9] stands for this setting: 48 h of treatment, read-out: IC50 48 h.
The mark [10] stands for this setting: 72 h of treatment, read-out: IC50 72 h.
[11] abbreviates: after removal of the inhibitors by desalting, read-out: IC50 Desalted.
Setting [12] is: in presence of the inhibitors, 50 nM AcTrxR-L, read-out: IC50 Not desalted.

One may read the IC50 as the concentration that inhibits the measured activity by half. `COc1ccc([N+](=O)[O-])c(S(=O)(=O)c2ccc(Cl)cc2)n1` [TRi-1]: the “TD50 24 h” value in data set [1] was found to be 8.84 ± 0.044 µM. Besides, the “TD50 48 h” value in [1] turned out to be 8.40 ± 0.168 µM. Moreover, the “TD50 72 h” value in data set [1] amounted to 8.40 ± 0.003 µM. Further, the half-inhibitory concentration (IC50) in data set [2] (24 h of treatment, read-out: IC50 24 h) worked out at 17700 ± 1640 nM; in [2] (setting [9]), 7650 ± 1710 nM; in data set [2] (setting [10]), 4290 ± 862 nM; in the data set with AcTrxR-L [3] (setting [11]), 370 ± 110 nM; in the data set on AcTrxR-L [3] (setting [12]), 360 ± 70 nM. Besides, the “Reversibility of AcTrxR-L inhibition after desalting” value in the data set with AcTrxR-L [3] is on record as “irreversibly inhibit the enzyme”.

One may read the Km as the substrate concentration at which the rate is half of its maximum. Broadly, the Vmax is the top rate of the reaction or transport when substrate is in excess. The term kcat denotes the maximal rate divided by the concentration of active sites. For `O=C(O)c1cc(SSc2ccc([N+](=O)[O-])c(C(=O)O)c2)ccc1[N+](=O)[O-]` [DTNB], in the data set on AcTrxR-L [4], the Km amounted to 384 ± 63.7 µM, the maximal velocity (Vmax) was determined as 238.1 ± 19.01 µmol/min/mg and the turnover number (kcat) was 79.37 s⁻¹.

In the case of `COc1ccc([N+](=O)[O-])c(S(=O)(=O)c2ccc(Cl)cc2)n1` [TRi-1, thioredoxin reductase inhibitor -1], the figures for the half-inhibitory concentration (IC50) at AcTrxR-L [5] and at AcTrxR-L [6] were 0.36 ± 0.07 µM and 0.37 ± 0.11 µM, respectively.

Regarding `CC(=O)OC[C@H]1O[C@@H]([S-])[C@H](OC(C)=O)[C@@H](OC(C)=O)[C@@H]1OC(C)=O.CCP(CC)CC.[Au+]` [Auranofin, auranofin], the concentration for half-maximal inhibition (IC50) is 216 nM with AcTrxR-S; 5790 nM in [7]; 21100 ± 11000 nM in data set [2] (setting [9]); 5640 ± 1350 nM in [2] (setting [10]); 320 ± 550 nM with AcTrxR-L [3] (setting [11]); 320 ± 390 nM in the data set with AcTrxR-L [3] (setting [12]). Moreover, the “TD50 24 h” value in data set [1] came out at 2.79 ± 0.076 µM. For the same molecule, the “TD50 48 h” value in data set [1] was found to be 1.18 ± 0.103 µM. Also, in data set [1], the “TD50 72 h” value worked out at 0.97 ± 0.045 µM. Besides, the “Reduction of worm burden” value with Schistosoma mansoni is reported as 60%. In addition, in the data set with AcTrxR-L [3], the “Reversibility of AcTrxR-L inhibition after desalting” value is recorded as “irreversibly inhibit the enzyme”.

Consider `[H]/N=C(\N/C(=N/[H])NCCCCCCNC(=N)NC(=N)Nc1ccc(Cl)cc1)Nc1ccc(Cl)cc1` [chlorhexidine], for which the concentration for half-maximal inhibition (IC50) with HCEC was 1580 nM.

As to `CC[PH](CC)(CC)[Au][S][C@@H]1O[C@H](COC(C)=O)[C@@H](OC(C)=O)[C@H](OC(C)=O)[C@H]1OC(C)=O` [Auranofin, auranofin (Ridaura), gold-based compound], the half-inhibitory concentration (IC50) worked out at 0.32 ± 0.39 µM at AcTrxR-L [5] and 0.32 ± 0.55 µM on AcTrxR-L [6].

As to “thioredoxin reductase inhibitor -2 [TRi-2]”, the concentration for half-maximal inhibition (IC50) at AcTrxR-L [5] and on AcTrxR-L [6] was > 10 µM throughout.

B1: AcTrxR-L (Acanthamoeba castellanii str. Neff) (protein)
chain: T1 sequence (L8HG59 1-526)
As usually defined, the kcat/Km is the turnover number divided by the Michaelis constant. On to B1, for which, in data set [8], the Km came out at 384.1 ± 63.74 µM, the Vmax turned out to be 238 µmol/min/mg, the kcat was found to be 79.4 s⁻¹ and the kcat/Km is 200000 M⁻¹ s⁻¹.
